Test results reported in PubChem BioAssay (NCI).
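Results reflect a 48-hour exposure of cells in 96-well plates to compound at five concentrations. GI50 marks 50% less growth. The concentration for full growth arrest is given as TGI.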

How the values were obtained:
Test in all cases: growth of human tumour cells (NCI), 48 h
786-0 renal = test system: 786-0 renal
A498 renal = test system: A498 renal
ACHN renal = test system: ACHN renal
BT-549 breast = test system: BT-549 breast
CAKI-1 renal = test system: CAKI-1 renal
CCRF-CEM leukemia = test system: CCRF-CEM leukemia
COLO 205 colon = test system: COLO 205 colon
DU-145 prostate = test system: DU-145 prostate
HCC-2998 colon = test system: HCC-2998 colon
HCT-116 colon = test system: HCT-116 colon
HCT-15 colon = test system: HCT-15 colon
HL-60(TB) leukemia = test system: HL-60(TB) leukemia
HOP-62 NSCLC = test system: HOP-62 NSCLC
HOP-92 NSCLC = test system: HOP-92 NSCLC
HS 578T breast = test system: HS 578T breast
HT29 colon = test system: HT29 colon
IGROV1 ovarian = test system: IGROV1 ovarian
K-562 leukemia = test system: K-562 leukemia
M14 melanoma = test system: M14 melanoma
MALME-3M melanoma = test system: MALME-3M melanoma
MCF7 breast = test system: MCF7 breast
MDA-MB-435 = test system: MDA-MB-435
MOLT-4 leukemia = test system: MOLT-4 leukemia
NCI-H226 lung = test system: NCI-H226 lung
NCI-H23 lung = test system: NCI-H23 lung
NCI-H460 lung = test system: NCI-H460 lung
NCI-H522 lung = test system: NCI-H522 lung
NCI/ADR-RES ovarian = test system: NCI/ADR-RES ovarian
OVCAR-3 ovarian = test system: OVCAR-3 ovarian
OVCAR-4 ovarian = test system: OVCAR-4 ovarian
OVCAR-5 ovarian = test system: OVCAR-5 ovarian
PC-3 prostate = test system: PC-3 prostate
RPMI-8226 leukemia = test system: RPMI-8226 leukemia
RXF 393 renal = test system: RXF 393 renal
SF-268 CNS = test system: SF-268 CNS
SF-539 CNS = test system: SF-539 CNS
SK-MEL-2 melanoma = test system: SK-MEL-2 melanoma
SK-MEL-28 melanoma = test system: SK-MEL-28 melanoma
SK-MEL-5 melanoma = test system: SK-MEL-5 melanoma
SK-OV-3 ovarian = test system: SK-OV-3 ovarian
SN12C renal = test system: SN12C renal
SNB-19 CNS = test system: SNB-19 CNS
SNB-75 CNS = test system: SNB-75 CNS
SR leukemia = test system: SR leukemia
SW-620 colon = test system: SW-620 colon
T-47D breast = test system: T-47D breast
TK-10 renal = test system: TK-10 renal
U251 CNS = test system: U251 CNS
UACC-257 melanoma = test system: UACC-257 melanoma
UACC-62 melanoma = test system: UACC-62 melanoma
UO-31 renal = test system: UO-31 renal

`N=C(N)c1ccc(-c2ccc(-c3cccs3)o2)cc1` gave a GI50 (786-0 renal) of 1.89 µM, a TGI (786-0 renal) of 3.44 µM and a GI50 (A498 renal) of 1.8 µM. For the same compound, the TGI (A498 renal) was 3.86 µM, the GI50 (ACHN renal) was 1.86 µM and the TGI (ACHN renal) was 3.51 µM. For the same compound, the GI50 (BT-549 breast) was 2.05 µM, the TGI (BT-549 breast) was 4.02 µM and the GI50 (CAKI-1 renal) was 2.14 µM. The TGI (CAKI-1 renal) was 5.2 µM, the GI50 (CCRF-CEM leukemia) was 2.33 µM and the TGI (CCRF-CEM leukemia) was 5.9 µM. It also gave a GI50 (COLO 205 colon) of 1.91 µM, a TGI (COLO 205 colon) of 3.49 µM and a GI50 (DU-145 prostate) of 2.91 µM. The TGI (DU-145 prostate) was 7.31 µM, the GI50 (HCC-2998 colon) was 1.87 µM and the TGI (HCC-2998 colon) was 3.41 µM. It also gave a GI50 (HCT-116 colon) of 1.83 µM, a TGI (HCT-116 colon) of 3.23 µM and a GI50 (HCT-15 colon) of 1.86 µM. The TGI (HCT-15 colon) was 3.8 µM, the GI50 (HL-60(TB) leukemia) was 1.82 µM and the TGI (HL-60(TB) leukemia) was 4.11 µM. The GI50 (HOP-62 NSCLC) was 2.04 µM, the TGI (HOP-62 NSCLC) was 4.32 µM and the GI50 (HOP-92 NSCLC) was 1.4 µM. For the same compound, the TGI (HOP-92 NSCLC) was 3.1 µM, the GI50 (HS 578T breast) was 2.14 µM and the TGI (HS 578T breast) was 5.25 µM. It also gave a GI50 (HT29 colon) of 1.89 µM, a TGI (HT29 colon) of 3.7 µM and a GI50 (IGROV1 ovarian) of 1.92 µM. For the same compound, the TGI (IGROV1 ovarian) was 3.83 µM, the GI50 (K-562 leukemia) was 2.27 µM and the TGI (K-562 leukemia) was 5.72 µM. It also gave a GI50 (M14 melanoma) of 1.9 µM, a TGI (M14 melanoma) of 3.39 µM and a GI50 (MALME-3M melanoma) of 1.91 µM. For the same compound, the TGI (MALME-3M melanoma) was 3.42 µM, the GI50 (MCF7 breast) was 1.69 µM and the TGI (MCF7 breast) was 3.29 µM. It also gave a GI50 (MDA-MB-435) of 1.76 µM, a TGI (MDA-MB-435) of 3.39 µM and a GI50 (MOLT-4 leukemia) of 2.34 µM. It also gave a TGI (MOLT-4 leukemia) of 4.89 µM, a GI50 (NCI-H226 lung) of 2.07 µM and a TGI (NCI-H226 lung) of 5.13 µM. It also gave a GI50 (NCI-H23 lung) of 3.63 µM, a TGI (NCI-H23 lung) of 13.2 µM and a GI50 (NCI-H460 lung) of 1.79 µM. The TGI (NCI-H460 lung) was 3.41 µM, the GI50 (NCI-H522 lung) was 2.01 µM and the TGI (NCI-H522 lung) was 3.89 µM. It also gave a GI50 (NCI/ADR-RES ovarian) of 2.88 µM, a TGI (NCI/ADR-RES ovarian) of 7.63 µM and a GI50 (OVCAR-3 ovarian) of 2.25 µM. It also gave a TGI (OVCAR-3 ovarian) of 4.92 µM, a GI50 (OVCAR-4 ovarian) of 2.35 µM and a TGI (OVCAR-4 ovarian) of 5.72 µM. It also gave a GI50 (OVCAR-5 ovarian) of 2.02 µM, a TGI (OVCAR-5 ovarian) of 6.2 µM and a GI50 (PC-3 prostate) of 2.13 µM. It also gave a TGI (PC-3 prostate) of 5.56 µM, a GI50 (RPMI-8226 leukemia) of 2.12 µM and a TGI (RPMI-8226 leukemia) of 4.98 µM. The GI50 (RXF 393 renal) was 1.69 µM, the TGI (RXF 393 renal) was 3.46 µM and the GI50 (SF-268 CNS) was 2.19 µM. The TGI (SF-268 CNS) was 5.17 µM, the GI50 (SF-539 CNS) was 1.68 µM and the TGI (SF-539 CNS) was 3.14 µM. The GI50 (SK-MEL-2 melanoma) was 2.19 µM, the TGI (SK-MEL-2 melanoma) was 4.04 µM and the GI50 (SK-MEL-28 melanoma) was 1.71 µM. For the same compound, the TGI (SK-MEL-28 melanoma) was 3.11 µM, the GI50 (SK-MEL-5 melanoma) was 1.65 µM and the TGI (SK-MEL-5 melanoma) was 3.02 µM. For the same compound, the GI50 (SK-OV-3 ovarian) was 2.4 µM, the TGI (SK-OV-3 ovarian) was 5.77 µM and the GI50 (SN12C renal) was 1.97 µM. It also gave a TGI (SN12C renal) of 4.38 µM, a GI50 (SNB-19 CNS) of 2.43 µM and a TGI (SNB-19 CNS) of 7.81 µM. It also gave a GI50 (SNB-75 CNS) of 1.71 µM, a TGI (SNB-75 CNS) of 3.5 µM and a GI50 (SR leukemia) of 2.99 µM. It also gave a TGI (SR leukemia) of 8.54 µM, a GI50 (SW-620 colon) of 1.77 µM and a TGI (SW-620 colon) of 3.37 µM. It also gave a GI50 (T-47D breast) of 2.17 µM, a TGI (T-47D breast) of 4.88 µM and a GI50 (TK-10 renal) of 1.95 µM. It also gave a TGI (TK-10 renal) of 3.44 µM, a GI50 (U251 CNS) of 1.76 µM and a TGI (U251 CNS) of 3.37 µM. For the same compound, the GI50 (UACC-257 melanoma) was 1.98 µM, the TGI (UACC-257 melanoma) was 3.63 µM and the GI50 (UACC-62 melanoma) was 1.75 µM. It also gave a TGI (UACC-62 melanoma) of 3.35 µM, a GI50 (UO-31 renal) of 1.9 µM and a TGI (UO-31 renal) of 3.74 µM.
